# Experimental data as given in patent publication US11000033B2, “Ketone or oxime compound, and herbicide” (NISSAN CHEMICAL CORPORATION, priority 2014, dated 2021).
# Experiments:
# Format in all cases: in vivo
# Stellaria media [1] = assay: Test Example 4: herbicidal effect by soil treatment (symbol P); settings: 320 g/ha
# Outline: (§1)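 Seeds were sown in sterilized diluvial soil, covered with about 1.5 cm of soil, and the soil surface was sprayed with a water-diluted emulsion of the compound at a predetermined rate. Plants grew in a greenhouse at 25° C. to 30° C.; effects were scored visually 3 weeks after application.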
# Alopecurus myosuroides = assay: Test Example 4: herbicidal effect by soil treatment (symbol J); settings: 320 g/ha
# Outline: as §1
# Avena fatua = assay: Test Example 5: herbicidal effect by foliage application, plastic box (symbol I); settings: 320 g/ha, 3 weeks after application
# Outline: (§2)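 After sowing into sterilized diluvial soil and growing two weeks under glass at 25° C. to 30° C., seedlings receive a uniform foliar spray of diluted emulsion. Damage is judged visually three weeks on.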
# Stellaria media [2] = assay: Test Example 5: herbicidal effect by foliage application, plastic box (symbol P); settings: 320 g/ha, 3 weeks after application
# Outline: as §2
# Galium spurium = assay: Test Example 5: herbicidal effect by foliage application, plastic box (symbol Q); settings: 320 g/ha, 3 weeks after application
# Outline: as §2
# Veronica persica [3] = assay: Test Example 4: herbicidal effect by soil treatment (symbol R); settings: 320 g/ha
# Outline: as §1
# soybean = assay: Test Example 4: effect on crop by soil treatment (symbol d); settings: 320 g/ha
# Outline: (§3)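 Crop seeds, among them rice, wheat, beet and rapeseed, were sown in sterilized diluvial soil and covered with about 1.5 cm of soil. Boxes were kept in a greenhouse at 25° C. to 30° C. for plant growth.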
# Digitaria ciliaris [4] = assay: Test Example 5: herbicidal effect by foliage application, plastic box (symbol F); settings: 320 g/ha, 3 weeks after application
# Outline: as §2
# corn = assay: Test Example 4: effect on crop by soil treatment (symbol c); settings: 320 g/ha
# Outline: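 Steps: fill box with sterilized diluvial soil; sow seed spot-like; cover with ~1.5 cm soil; grow in greenhouse (25° C. to 30° C.).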
# [5] = system: Echinochloa crus-galli var. crus-galli; assay: Test Example 4: herbicidal effect by soil treatment (symbol H); settings: 320 g/ha
# Outline: as §1
# rapeseed = assay: Test Example 4: effect on crop by soil treatment (symbol g); settings: 320 g/ha
# Outline: as §3
# [6] = system: directly sowed rice plant; assay: Test Example 3: effect on crop by foliage application, Wagner pot (symbol b); settings: application herbicide amount 320 g/ha
# Outline: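 Greenhouse culture at 25–30 °C of seeded rice, Cyperus difformis, Leptochloa chinensis and Echinochloa crus-galli var. crus-galli, in alluvial soil held under 0.1–0.5 cm of water in a Wagner pot.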
# Apera spica-venti = assay: Test Example 5: herbicidal effect by foliage application, plastic box (symbol L); settings: 320 g/ha, 3 weeks after application
# Outline: as §2
# rice = assay: Test Example 4: effect on crop by soil treatment (symbol b); settings: 320 g/ha
# Outline: as §3
# Digitaria ciliaris [7] = assay: Test Example 4: herbicidal effect by soil treatment (symbol F); settings: 320 g/ha
# Outline: as §1
# beet [8] = assay: Test Example 4: effect on crop by soil treatment (symbol f); settings: 320 g/ha
# Outline: as §3
# Setaria viridis = assay: Test Example 5: herbicidal effect by foliage application, plastic box (symbol G); settings: 320 g/ha, 3 weeks after application
# Outline: as §2
# Abutilon theophrasti = assay: Test Example 5: herbicidal effect by foliage application, plastic box (symbol M); settings: 320 g/ha, 3 weeks after application
# Outline: as §2
# beet [9] = assay: Test Example 5: effect on crop by foliage application, plastic box (symbol f); settings: 320 g/ha, 3 weeks after application
# Outline: (§4)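 A greenhouse held between 25° C. and 30° C. was used to grow plants sown spot-wise, beneath ~1.5 cm of soil, in boxes of sterilized diluvial soil.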
# Veronica persica [10] = assay: Test Example 5: herbicidal effect by foliage application, plastic box (symbol R); settings: 320 g/ha, 3 weeks after application
# Outline: as §2
# wheat = assay: Test Example 5: effect on crop by foliage application, plastic box (symbol e); settings: 320 g/ha, 3 weeks after application
# Outline: as §4
# Lolium multiflorum Lam. = assay: Test Example 4: herbicidal effect by soil treatment (symbol K); settings: 320 g/ha
# Outline: as §1
# rice plant = assay: Test Example 5: effect on crop by foliage application, plastic box (symbol b); settings: 320 g/ha, 3 weeks after application
# Outline: as §4
# Chenopodium album = assay: Test Example 5: herbicidal effect by foliage application, plastic box (symbol O); settings: 320 g/ha, 3 weeks after application
# Outline: as §2
Compound,"P: Stellaria media, herbicidal effect grade (Stellaria media [1])","J: Alopecurus myosuroides, herbicidal effect grade (Alopecurus myosuroides)","I: Avena fatua, herbicidal effect (criteria 0-5) (Avena fatua)","P: Stellaria media, herbicidal effect (criteria 0-5) (Stellaria media [2])","Q: Galium spurium, herbicidal effect (criteria 0-5) (Galium spurium)","R: Veronica persica, herbicidal effect grade (Veronica persica [3])","d: soybean, effect grade on crop (soybean)","F: Digitaria ciliaris, herbicidal effect (criteria 0-5) (Digitaria ciliaris [4])","c: corn, effect grade on crop (corn)","H: Echinochloa crus-galli var. crus-galli, herbicidal effect grade [5]","g: rapeseed, effect grade on crop (rapeseed)","effect on crop b (directly sowed rice plant), grade 0-5 [6]","L: Apera spica-venti, herbicidal effect (criteria 0-5) (Apera spica-venti)","b: directly sowed rice plant, effect grade on crop (rice)","F: Digitaria ciliaris, herbicidal effect grade (Digitaria ciliaris [7])","f: beet, effect grade on crop (beet [8])","G: Setaria viridis, herbicidal effect (criteria 0-5) (Setaria viridis)","M: Abutilon theophrasti, herbicidal effect (criteria 0-5) (Abutilon theophrasti)","f: beet, effect on crop (criteria 0-5) (beet [9])","R: Veronica persica, herbicidal effect (criteria 0-5) (Veronica persica [10])",other results
CON=C(C)CC1CC(OC(=O)c2nsc(Cl)c2Cl)=C(c2c(C)cc(C)cc2C)C1=O (stereo not drawn) [1-099],0 (Herbicidal ratio of 5% or lower (almost no effect)),5 (Herbicidal ratio of 90% or more (almost completely withered)),5 (Herbicidal ratio of 90% or more (almost completely withered)),3 (Herbicidal ratio of 40% or higher and lower than 70%),3 (Herbicidal ratio of 40% or higher and lower than 70%),0 (Herbicidal ratio of 5% or lower (almost no effect)),3 (Herbicidal ratio of 40% or higher and lower than 70%),5 (Herbicidal ratio of 90% or more (almost completely withered)),5 (Herbicidal ratio of 90% or more (almost completely withered)),5 (Herbicidal ratio of 90% or more (almost completely withered)),5 (Herbicidal ratio of 90% or more (almost completely withered)),5 (Herbicidal ratio of 90% or more (almost completely withered)),5 (Herbicidal ratio of 90% or more (almost completely withered)),5 (Herbicidal ratio of 90% or more (almost completely withered)),5 (Herbicidal ratio of 90% or more (almost completely withered)),2 (Herbicidal ratio of 20% or higher and lower than 40%),5 (Herbicidal ratio of 90% or more (almost completely withered)),4 (Herbicidal ratio of 70% or higher and lower than 90%),1 (Herbicidal ratio of 5% or higher and lower than 20%),3 (Herbicidal ratio of 40% or higher and lower than 70%),"e: wheat, effect on crop (criteria 0-5) (wheat): 5 (Herbicidal ratio of 90% or more (almost completely withered)); K: Lolium multiflorum Lam., herbicidal effect grade (Lolium multiflorum Lam.): 5 (Herbicidal ratio of 90% or more (almost completely withered)); b: directly sowed rice plant, effect on crop (criteria 0-5) (rice plant): 5 (Herbicidal ratio of 90% or more (almost completely withered)); O: Chenopodium album, herbicidal effect (criteria 0-5) (Chenopodium album): 3 (Herbicidal ratio of 40% or higher and lower than 70%)"
CC(CC1CC(O)=C(c2c(C)cc(C)cc2C)C1=O)=NOCC#N (stereo not drawn) [1-102],0 (Herbicidal ratio of 5% or lower (almost no effect)),5 (Herbicidal ratio of 90% or more (almost completely withered)),5 (Herbicidal ratio of 90% or more (almost completely withered)),0 (Herbicidal ratio of 5% or lower (almost no effect)),0 (Herbicidal ratio of 5% or lower (almost no effect)),0 (Herbicidal ratio of 5% or lower (almost no effect)),0 (Herbicidal ratio of 5% or lower (almost no effect)),5 (Herbicidal ratio of 90% or more (almost completely withered)),0 (Herbicidal ratio of 5% or lower (almost no effect)),5 (Herbicidal ratio of 90% or more (almost completely withered)),0 (Herbicidal ratio of 5% or lower (almost no effect)),5 (Herbicidal ratio of 90% or more (almost completely withered)),5 (Herbicidal ratio of 90% or more (almost completely withered)),5 (Herbicidal ratio of 90% or more (almost completely withered)),4 (Herbicidal ratio of 70% or higher and lower than 90%),0 (Herbicidal ratio of 5% or lower (almost no effect)),5 (Herbicidal ratio of 90% or more (almost completely withered)),0 (Herbicidal ratio of 5% or lower (almost no effect)),0 (Herbicidal ratio of 5% or lower (almost no effect)),2 (Herbicidal ratio of 20% or higher and lower than 40%),"e: wheat, effect on crop (criteria 0-5) (wheat): 4 (Herbicidal ratio of 70% or higher and lower than 90%); K: Lolium multiflorum Lam., herbicidal effect grade (Lolium multiflorum Lam.): 5 (Herbicidal ratio of 90% or more (almost completely withered)); b: directly sowed rice plant, effect on crop (criteria 0-5) (rice plant): 5 (Herbicidal ratio of 90% or more (almost completely withered)); O: Chenopodium album, herbicidal effect (criteria 0-5) (Chenopodium album): 3 (Herbicidal ratio of 40% or higher and lower than 70%)"
Cc1cc(C)c(C2=C(O)CC(CC(=NOCC(F)(F)F)C3CC3)C2=O)c(C)c1 (stereo not drawn) [1-131],0 (Herbicidal ratio of 5% or lower (almost no effect)),5 (Herbicidal ratio of 90% or more (almost completely withered)),4 (Herbicidal ratio of 70% or higher and lower than 90%),0 (Herbicidal ratio of 5% or lower (almost no effect)),0 (Herbicidal ratio of 5% or lower (almost no effect)),3 (Herbicidal ratio of 40% or higher and lower than 70%),0 (Herbicidal ratio of 5% or lower (almost no effect)),0 (Herbicidal ratio of 5% or lower (almost no effect)),0 (Herbicidal ratio of 5% or lower (almost no effect)),5 (Herbicidal ratio of 90% or more (almost completely withered)),4 (Herbicidal ratio of 70% or higher and lower than 90%),5 (Herbicidal ratio of 90% or more (almost completely withered)),5 (Herbicidal ratio of 90% or more (almost completely withered)),5 (Herbicidal ratio of 90% or more (almost completely withered)),4 (Herbicidal ratio of 70% or higher and lower than 90%),0 (Herbicidal ratio of 5% or lower (almost no effect)),5 (Herbicidal ratio of 90% or more (almost completely withered)),0 (Herbicidal ratio of 5% or lower (almost no effect)),0 (Herbicidal ratio of 5% or lower (almost no effect)),4 (Herbicidal ratio of 70% or higher and lower than 90%),"e: wheat, effect on crop (criteria 0-5) (wheat): 2 (Herbicidal ratio of 20% or higher and lower than 40%); K: Lolium multiflorum Lam., herbicidal effect grade (Lolium multiflorum Lam.): 5 (Herbicidal ratio of 90% or more (almost completely withered)); b: directly sowed rice plant, effect on crop (criteria 0-5) (rice plant): 4 (Herbicidal ratio of 70% or higher and lower than 90%); O: Chenopodium album, herbicidal effect (criteria 0-5) (Chenopodium album): 0 (Herbicidal ratio of 5% or lower (almost no effect))"
